We go through one compound from PMC3073382 (Journal of medicinal chemistry, 2010).

The experiment has as its target PKA (catalytic subunit) (Bos taurus, UniProt P00517). As to the kind of experiment: biochemical.

Compound `O=C(N[C@@H]1CNCCC[C@H]1OC(=O)c1cc(O)c(C(=O)c2c(O)cccc2C(=O)O)c(O)c1)c1ccc(O)cc1` [balanol] showed an IC50 of 110 nM.
